Results: ChEMBL document CHEMBL1201862, “PubChem BioAssay data set” (2004)
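All cell lines were grown in 96-well plates and treated with compound for 48 hours. The concentration for 50% growth inhibition is given as GI50.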 The source made the active and inactive calls. Rule as the data show it: active = GI50 up to about 1.1 µM and inactive = higher.

Assays:
Experiment in all cases: NCI tumour cell line growth inhibition, 48 h
[1] = system: CAKI-1
[2] = system: COLO 205
[3] = system: HCC 2998
[4] = system: HCT-116
[5] = system: HL-60
[6] = system: HOP-62
[7] = system: HT-29
[8] = system: Malme-3M
[9] = system: NCI-H226
[10] = system: OVCAR-3
[11] = system: OVCAR-5
[12] = system: OVCAR-8
[13] = system: SK-MEL-2
[14] = system: SK-OV-3
[15] = system: SNB-19
[16] = system: ACHN
[17] = system: NCI-H522
[18] = system: U-251
[19] = system: UO-31
[20] = system: SF-268

Measured: GI50

CCCSc1nc(COC(=O)NC)c(COC(=O)NC)n1C
inactive: [1] 48.1 µM | [2] > 100 µM | [3] > 100 µM | [4] > 100 µM | [5] 43.9 µM | [6] > 100 µM | [7] > 100 µM | [8] > 100 µM | [9] > 100 µM | [10] > 100 µM | [11] > 100 µM | [12] > 100 µM | [13] > 100 µM | [14] > 100 µM | [15] > 100 µM

CCOP(=O)(OCC)C(Cc1c[nH]c2ccccc12)C(=O)O (stereo not given)
inactive: [16] > 100 µM | [1] > 100 µM | [2] > 100 µM | [3] > 100 µM | [4] > 100 µM | [5] > 100 µM | [6] > 100 µM | [7] > 100 µM | [9] > 100 µM | [17] > 100 µM | [10] > 100 µM | [11] > 100 µM | [12] > 100 µM | [13] > 100 µM | [14] > 100 µM | [15] > 100 µM | [18] > 100 µM | [19] > 100 µM

CCCCCCNC(=O)C1=C(C)NC(C)=C(C(=O)NCCCCCC)C1
inactive: [16] > 100 µM | [1] > 100 µM | [2] > 100 µM | [3] > 100 µM | [4] > 100 µM | [5] 31 µM | [6] > 100 µM | [7] 89.3 µM | [9] > 100 µM | [17] > 100 µM | [10] > 100 µM | [11] > 100 µM | [12] > 100 µM | [20] > 100 µM | [13] > 100 µM | [14] > 100 µM | [15] > 100 µM | [18] > 100 µM | [19] 63.8 µM

O=C(CC(=O)Nc1ccc(C(=O)O)cc1)Nc1ccc(C(=O)O)cc1
inactive: [16] > 100 µM | [1] > 100 µM | [2] > 100 µM | [3] > 100 µM | [4] > 100 µM | [5] > 100 µM | [7] > 100 µM | [8] > 100 µM | [9] > 100 µM | [17] > 100 µM | [10] > 100 µM | [12] > 100 µM | [20] 34.6 µM | [13] 17.3 µM | [14] > 100 µM | [15] > 100 µM | [18] > 100 µM | [19] > 100 µM

O=S(=O)(N/N=C/c1c(Cl)cccc1Cl)c1ccccc1
inactive: [2] > 100 µM | [3] > 100 µM | [4] > 100 µM | [5] 29.9 µM | [6] > 100 µM | [7] > 100 µM | [8] > 100 µM | [9] > 100 µM | [10] > 100 µM | [11] > 100 µM | [12] > 100 µM | [20] > 100 µM | [13] > 100 µM | [14] > 100 µM | [18] 50.7 µM | [19] > 100 µM

CC#C[C@@]1(O)CCCC[C@@H]1O
inactive: [16] > 100 µM | [2] > 100 µM | [3] > 100 µM | [4] > 100 µM | [5] > 100 µM | [6] > 100 µM | [7] > 100 µM | [8] > 100 µM | [9] > 100 µM | [17] > 100 µM | [10] > 100 µM | [12] > 100 µM | [20] > 100 µM | [13] > 100 µM | [14] > 100 µM | [15] > 100 µM | [18] > 100 µM | [19] > 100 µM

Cc1ccc(S(=O)(=O)OC(COC(=O)c2ccccc2)C(OS(=O)(=O)c2ccc(C)cc2)C(OS(=O)(=O)c2ccc(C)cc2)C(COC(=O)c2ccccc2)OS(=O)(=O)c2ccc(C)cc2)cc1 (stereo not given)
inactive: [16] > 100 µM | [1] > 100 µM | [2] > 100 µM | [3] > 100 µM | [4] > 100 µM | [5] > 100 µM | [6] > 100 µM | [7] > 100 µM | [8] > 100 µM | [17] > 100 µM | [10] > 100 µM | [12] > 100 µM | [20] > 100 µM | [13] > 100 µM | [14] > 10 µM | [15] > 100 µM | [18] > 100 µM | [19] > 100 µM

O=C1/C(=C/c2cccs2)N=C(c2ccccc2)N1C1Nc2cc3c(cc2S1)NC(N1C(=O)/C(=C/c2cccs2)N=C1c1ccccc1)S3 (stereo not given)
inactive: [16] 34.1 µM | [1] 48.6 µM | [3] 19.3 µM | [4] 15 µM | [5] 2.59 µM | [6] 30.8 µM | [7] 25.3 µM | [9] 20.3 µM | [17] 13.4 µM | [10] 30.7 µM | [11] 27.7 µM | [12] 17.1 µM | [20] 20.2 µM | [13] 18.6 µM | [18] 16 µM | [19] 35.3 µM

Oc1ccccc1C1C=C(c2ccccc2)NC(N2CCCCC2)=C1c1nc2ccccc2[nH]1 (stereo not given)
inactive: [16] 18.2 µM | [2] 2.19 µM | [3] 3.08 µM | [4] 11.7 µM | [5] 14.2 µM | [6] 14.1 µM | [7] 15.2 µM | [8] 15.8 µM | [9] 16.7 µM | [17] 14 µM | [10] 14.6 µM | [11] 17.9 µM | [12] 15.9 µM | [20] 13.2 µM | [14] 13.5 µM | [15] 15 µM | [18] 15.1 µM | [19] 11.1 µM

CC1=C2c3c(C)ccc4ccc(C)c(c34)C2(O)C(C)C1=O (stereo not given)
inactive: [16] 73.6 µM | [1] 52.1 µM | [2] 28.8 µM | [3] > 100 µM | [4] 43.8 µM | [5] 28.2 µM | [6] 79.1 µM | [7] > 100 µM | [9] > 100 µM | [17] 47.2 µM | [10] 37.7 µM | [11] > 100 µM | [12] 19.4 µM | [20] 63.4 µM | [13] > 100 µM | [14] 52.7 µM | [15] 44.3 µM | [18] > 100 µM | [19] 21.3 µM

CCN(CC)c1ccc2cc(C(=O)Nc3nc(C45CC6CC(CC(C6)C4)C5)cs3)c(=O)oc2c1
inactive: [16] > 100 µM | [1] > 100 µM | [2] > 100 µM | [3] > 100 µM | [4] > 100 µM | [5] > 100 µM | [6] > 100 µM | [7] > 100 µM | [8] > 100 µM | [9] > 100 µM | [17] > 100 µM | [10] > 100 µM | [11] > 100 µM | [12] > 100 µM | [20] > 100 µM | [15] > 100 µM | [18] > 100 µM | [19] > 100 µM

CC(=O)c1cccc(NC(=O)C(=O)C(C(=O)c2ccccc2F)C2OC(=O)c3ccccc32)c1 (stereo not given)
inactive: [16] 37.7 µM | [1] 65.3 µM | [2] 18.6 µM | [3] 24.1 µM | [4] 33.3 µM | [5] 24 µM | [6] 61.7 µM | [7] 35.9 µM | [9] 19.1 µM | [17] 19.4 µM | [11] 64.3 µM | [12] 31.8 µM | [20] 34.3 µM | [13] 29.8 µM | [14] 35.4 µM | [15] 32.1 µM | [18] 19.8 µM | [19] 34.4 µM

C/C(=C/c1c(C)[nH]c(=O)[nH]c1=O)C(=O)O
inactive: [1] > 1370 µM | [2] > 1370 µM | [3] > 1370 µM | [4] > 1370 µM | [5] > 1370 µM | [6] > 1370 µM | [7] > 1370 µM | [8] > 1370 µM | [9] > 1370 µM | [17] > 1370 µM | [10] > 1370 µM | [11] > 1260 µM | [20] > 1370 µM | [14] > 1370 µM | [15] > 1370 µM | [18] > 1370 µM | [19] > 1370 µM

COc1ccc(-c2c3c([nH]c(=S)c2C#N)CC(C)(C)CC3=O)cc1
inactive: [16] > 100 µM | [1] > 100 µM | [3] > 100 µM | [4] > 100 µM | [5] > 100 µM | [6] > 100 µM | [7] > 100 µM | [8] > 100 µM | [9] > 100 µM | [17] 36.4 µM | [10] > 100 µM | [11] > 100 µM | [12] > 100 µM | [20] > 100 µM | [13] > 100 µM | [15] > 100 µM | [18] > 100 µM | [19] > 100 µM

C[C@@H]1O[C@]2(O)[C@@H]3CCCN3S(=O)(=O)CCN2C1=O
inactive: [16] > 100 µM | [1] > 100 µM | [2] > 100 µM | [3] > 100 µM | [4] > 100 µM | [5] > 100 µM | [6] > 100 µM | [7] > 100 µM | [8] > 100 µM | [9] > 100 µM | [17] > 100 µM | [10] > 100 µM | [11] > 100 µM | [12] > 100 µM | [20] > 100 µM | [14] > 100 µM | [15] > 100 µM | [18] > 100 µM | [19] > 100 µM
